79 molecules from the METLIN SMRT retention time set (Domingo-Almenara et al. 2019) can be followed below.

A short description of this data set: gradient 5% acetonitrile 3 min, to 50% in 2 min, to 85% in 15 min, held 3 min, 100 µL/min. Conditions: column: Zorbax Extend-C18 2.1 x 50 mm; eluents: water / acetonitrile, 0.1% formic acid. In a few lines:
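Retention times of pure standards were taken from adduct peaks that were selected by computer and manually inspected. Over 3 months, mixtures of ~100 molecules were run by HPLC–quadrupole time-of-flight mass spectrometry in positive and negative ionization mode. The Zorbax Extend-C18 column (2.1 × 50 mm, 1.8 μm) ran at 100 μL/min in water and acetonitrile, each containing 0.1% formic acid, with 40 μL dead volume and 900 μL dwell volume.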
The molecule `COc1ccc(NC(=O)N2CCCC(Cn3cnc4cccnc43)C2)cc1Cl` (centres undefined) came in with an RP-LC retention time of 692 s.

Take `CCOCCCNC(=O)c1ncoc1-c1ccccc1C(=O)N1CCCC1`: the RP-LC retention time came to 686 s.

On to `CC(C)CC(=O)N1CC(c2nc(-c3ccccc3)no2)C2(CCOCC2)C1` (centres undefined), for which the RP-LC retention time amounted to 896 s.

For the molecule `COCCn1c(SCc2nc(-c3ccc(OC)cc3)no2)nc2cc3c(cc2c1=O)OCO3`, the RP-LC retention time was 1020 s.

The molecule `CCC1Oc2ccc(S(=O)(=O)N3CCC(C(=O)NCc4ccccc4OC)CC3)cc2NC1=O` (centres undefined) showed an RP-LC retention time of 839 s.

`Cc1nc(-c2cc(S(=O)(=O)Nc3ccc(F)cc3F)c(C)s2)sc1C` had an RP-LC retention time of 1090 s.

Molecule `CN1Cc2ccccc2-n2ccnc2C12CCN(C(=O)c1cccc(C(F)(F)F)c1)CC2` displayed an RP-LC retention time of 594 s.

The molecule `Cc1ccc(-c2cn3ccn(-c4cccc(F)c4)c(=O)c3n2)cc1C` came in with an RP-LC retention time of 873 s.

As to `Cc1ccccc1S(=O)(=O)N1CCC(CCC(=O)NC2CCS(=O)(=O)C2)CC1` (centres undefined), the RP-LC retention time worked out at 726 s.

The molecule `CCc1nc2ccc(CCC(=O)NCCCc3ccccc3)cc2[nH]1` came in with an RP-LC retention time of 614 s.

`Cc1ccccc1CNC(=O)Cn1cccc1-c1nnc(C2CCC2)o1` showed an RP-LC retention time of 920 s.

`c1cc(-c2nc(-c3ccc4c(c3)ncn4CCN3CCCCC3)no2)co1` had an RP-LC retention time of 598 s.

Take `COc1ccccc1-c1noc(CN2C(=O)C(C)Oc3ccccc32)n1` (centres undefined): the RP-LC retention time came to 944 s.

`O=C(NC1CC1)c1nc(C(=O)N2CCN(C3CCCCC3)CC2)cs1` registered an RP-LC retention time of 601 s.

Molecule `O=C(Cn1cccc1-c1nc(-c2ccc(Cl)cc2)cs1)NCCCN1CCOCC1` gave an RP-LC retention time of 612 s.

Regarding `CCc1noc(-c2nnn3c2COC(c2ccc(OC)cc2)C3)n1` (centres undefined), the RP-LC retention time was determined as 941 s.

On to `CCCNC(=O)N1CCCC1c1nc(-c2cccc(Cl)c2)no1` (centres undefined), for which the RP-LC retention time amounted to 904 s.

With `CCn1nccc1C(=O)N1CCC(n2c(-c3ccsc3)nc3cccnc32)C1` (centres undefined), the RP-LC retention time was determined as 643 s.

`Cc1oc(-c2[nH]ncc2C(=O)N(C)C)cc1S(=O)(=O)Nc1ccccc1F` displayed an RP-LC retention time of 658 s.

Regarding `CC(C)n1c(N2CCCN(C(=O)c3ccc(Br)o3)CC2)cc(=O)n(C(C)C)c1=O`, the RP-LC retention time is 866 s.

Consider `CCCN1C(=O)COc2ccc(-c3noc(COc4ccc(F)cc4)n3)cc21`, for which the RP-LC retention time turned out to be 1090 s.

As for `Cc1ccc(Cn2cccc2-c2nc(-c3ccc(F)cc3)no2)cc1`, the RP-LC retention time is 1460 s.

For `Cc1ccc(-c2nc3ncccn3c2NCc2ccc(F)cc2)cc1C`, the RP-LC retention time worked out at 789 s.

For the molecule `Cc1nc2nc(-c3ccc(C(C)(C)C)cc3)nn2c(C)c1CC(=O)NC(C)C`, the RP-LC retention time is 911 s.

Regarding `Cc1ccc(-n2cc3c(N4CCCC(C(=O)NC(C)c5ccc(C)cc5C)C4)ncnc3n2)cc1` (centres undefined), the RP-LC retention time came out at 814 s.

Consider `Cc1ccc(Oc2cccc(NC(=O)Cc3noc4ccccc34)c2)nn1`, for which the RP-LC retention time was determined as 699 s.

`COc1ccccc1-c1noc(C2CCCN2C(=O)Nc2ccccc2C(F)(F)F)n1` (centres undefined) came in with an RP-LC retention time of 933 s.

`O=C(Nc1nc(-c2ccc3ccccc3c2)cs1)c1ccc2c(c1)OCO2` displayed an RP-LC retention time of 1160 s.

The molecule `CC(Oc1ccccc1)c1nc(-c2ccc3c(c2)ncn3CCC(=O)N2CCCC2)no1` (centres undefined) had an RP-LC retention time of 751 s.

For `CC(C)NCc1ccc(-c2ccc(Cl)cc2)o1`, the RP-LC retention time came out at 669 s.

On to `Cc1ccc(S(=O)(=O)N2CCC3(CC2)NCCN=C3NCc2ccc(Cl)cc2)cc1`, for which the RP-LC retention time amounted to 742 s.

`CCOC(=O)c1c(C)[nH]c(C(=O)N2CCC(C(C)C(=O)NCc3ccccc3C)CC2)c1C` (centres undefined) showed an RP-LC retention time of 851 s.

As to `CCOc1ccc(S(=O)(=O)N2CCC(C(=O)NCCO)CC2)cc1C`, the RP-LC retention time is 699 s.

Turning to `Cc1nc(C)c(C(=O)N2CCC(N3C(=O)C4(CCCC4)C3c3scnc3C)CC2)s1` (centres undefined), the RP-LC retention time amounted to 684 s.

The molecule `CCOCCCNC(=O)C1CCCN(c2ncc(-c3ccc(F)cc3)cn2)C1` (centres undefined) displayed an RP-LC retention time of 886 s.

Take `C[C@H](C(=O)O)c1cccc(C(=O)c2ccccc2)c1`: the RP-LC retention time was found to be 866 s.

In the case of `CCN(CC)S(=O)(=O)c1c(C)[nH]c(=O)[nH]c1=O`, the RP-LC retention time stood at 578 s.

As for `Cc1noc(C)c1CCC(=O)N(C)C1CCc2nn(CC3CC3)c(=O)n2CC1` (centres undefined), the RP-LC retention time turned out to be 644 s.

In the case of `COCc1noc([C@@H]2CC(F)(F)CN2C(=O)c2nccn2C)n1`, the RP-LC retention time stood at 716 s.

For the molecule `CC(Oc1ccc(Cl)cc1)C(=O)N1CCN(c2cc(-c3ccccc3)[nH]n2)CC1` (centres undefined), the RP-LC retention time is 884 s.

`O=C(Nc1cccc(F)c1)C1CCCN(S(=O)(=O)c2cc(-c3noc(C4CCC4)n3)cs2)C1` (centres undefined): the RP-LC retention time was 1190 s.

`CCn1c(=O)oc2cc(-c3noc(-c4ccc(OC)cc4)n3)ccc21` registered an RP-LC retention time of 976 s.

With `CCn1c(C(=O)NCCN2CCCC2)c(N2CCCC2=O)c2cc(OC)ccc21`, the RP-LC retention time came out at 624 s.

`CCOC(=O)c1c(N2C(=O)CC(Sc3ccccc3C(=O)O)C2=O)sc(C)c1C` (centres undefined): the RP-LC retention time worked out at 821 s.

`COc1cccc(Cn2c(C)c(CNCc3ccc(C)o3)c(C(=O)O)c2C)c1`: the RP-LC retention time worked out at 715 s.

On to `Cc1ccc(C)c(NC(=O)Cc2csc3nc(-c4ccc(C)c(C)c4)cn23)c1`, for which the RP-LC retention time came out at 896 s.

The molecule `COc1cccc(-c2csc(Cc3nc(-c4cccc(C)c4)no3)n2)c1` returned an RP-LC retention time of 1250 s.

`CCC(CC)N1CCN(S(=O)(=O)c2cc(-c3[nH]ncc3C(=O)N(C)C)oc2C)CC1` came in with an RP-LC retention time of 577 s.

`CCOC(=O)c1cnn2c(SC)ncnc12`: the RP-LC retention time was determined as 776 s.

`CCC1(O)CCOC2(CCN(Cc3ccncc3F)CC2)C1` (centres undefined) returned an RP-LC retention time of 554 s.

In turn, `Cc1ccc(Cl)cc1NC(=O)Cn1nc2c(Oc3ccc(C(C)C)cc3)nccn2c1=O` registered an RP-LC retention time of 1080 s.

Turning to `COc1ccc(C)cc1NC(=O)N1CCCC1c1cc(C(C)C)on1` (centres undefined), the RP-LC retention time is 1050 s.

The molecule `COc1cccc(-c2nc(C3CC(=O)N(c4ccccc4)C3)no2)c1` (centres undefined) registered an RP-LC retention time of 943 s.

In turn, `COc1cccc(OC)c1OCCNCC1COc2ccccc2O1` (centres undefined) came in with an RP-LC retention time of 767 s.

For `COc1cccc2c(Nc3ccc(N(C)C)cc3)cc(C(=O)N3CCSCC3)nc12`, the RP-LC retention time was 682 s.

Take `CCN(CCCNC(=O)c1nnc(-c2ccc(S(=O)(=O)N3CCCC3)cc2)o1)c1ccccc1`: the RP-LC retention time was 714 s.

For the molecule `CCCn1ccc2sc(C)c(C(=O)NC(C)c3ccccc3)c2c1=O` (centres undefined), the RP-LC retention time stood at 900 s.

`COc1ccc(CNC(=O)N2CCC3(C2)C(=O)N(C)c2ccccc23)cc1` (centres undefined) displayed an RP-LC retention time of 734 s.

On to `O=S(=O)(Nc1ccc(Cn2cncn2)cc1)c1ccc(Cl)cc1`, for which the RP-LC retention time was 744 s.

Molecule `CC(C)(C)NC(=O)NCCC1CCN(S(=O)(=O)c2ccccc2)CC1` had an RP-LC retention time of 822 s.

In turn, `CN1CCCc2cc(C(CNC(=O)C(=O)NCc3ccc4c(c3)OCO4)N3CCCCC3)ccc21` (centres undefined) registered an RP-LC retention time of 734 s.

With `Cc1cc2c(cc1S(=O)(=O)N1CCC(C(=O)NCc3ccccc3Cl)CC1)OCC(=O)N2`, the RP-LC retention time turned out to be 789 s.

For `O=C1NCCCCCCN(Cc2ccc(C(F)(F)F)cc2)[C@H]2CCC[C@@H]12`, the RP-LC retention time is 700 s.

`Cc1ccc(NC(=O)C2CCCN2S(=O)(=O)c2cc3c(cc2C)NC(=O)C(C)O3)c(Cl)c1` (centres undefined) returned an RP-LC retention time of 914 s.

For `CCCCNC(=O)Cn1nc2c3cc(-c4ccc(C)c(C)c4)nn3ccn2c1=O`, the RP-LC retention time came out at 924 s.

`COc1cccc(CN2CCC3(CC2)C(OC)C(=O)N3c2cccc(F)c2)n1` (centres undefined) gave an RP-LC retention time of 703 s.

Molecule `Cc1nn(CC(=O)N2CCC(C)CC2)c(=O)c2c(-n3cccc3)n(-c3ccc(Cl)cc3)nc12` came in with an RP-LC retention time of 1130 s.

In the case of `O=C(Nc1ccc(Oc2ccc(NC(=O)Nc3ccccc3Cl)cc2)cc1)Nc1ccccc1Cl`, the RP-LC retention time stood at 1250 s.

The molecule `CC(C)Cn1cc(CCNS(=O)(=O)c2cccc(C(F)(F)F)c2)c2cccnc21` returned an RP-LC retention time of 1030 s.

For `O=C(c1ccc(Cl)cc1Cl)N1CCN(c2cc(-c3ccccc3)[nH]n2)CC1`, the RP-LC retention time turned out to be 936 s.

On to `Cc1ccc(-c2nc3nc(C)cc(N(CCO)Cc4ccccc4)n3n2)cc1`, for which the RP-LC retention time turned out to be 815 s.

The molecule `Cc1ccc(C)c(CNC(=O)c2cccn2Cc2noc(C)n2)c1` gave an RP-LC retention time of 893 s.

Molecule `CN1CCC(NC(=O)c2ccc3c(c2)N(S(=O)(=O)c2ccccc2F)CC3)CC1` displayed an RP-LC retention time of 626 s.

For the molecule `CCS(=O)(=O)c1nc2ccc(NS(=O)(=O)c3cccc(F)c3)cc2s1`, the RP-LC retention time stood at 851 s.

`Cc1ccc(-c2cc(N3CCOCC3)c3cc(NC(=O)NC4CCCCC4)ccc3n2)cc1` registered an RP-LC retention time of 787 s.

As for `COCC(=O)N(C1CCOCC1)C1CCN(S(=O)(=O)c2cccnc2)CC1`, the RP-LC retention time worked out at 641 s.

The molecule `Cc1cccc(NC(=O)Cn2nc(N3CCSCC3)c3ccccc3c2=O)c1` displayed an RP-LC retention time of 961 s.

Regarding `CC(C)NC(=O)C1CCN(c2nc3ccc(-c4ccc(F)cc4)nc3s2)CC1`, the RP-LC retention time was 752 s.

`CCCCCNC(=O)c1cn(C)nc1S(=O)(=O)N1CCSCC1` returned an RP-LC retention time of 897 s.
